Counter-ions that a name gives are not always drawn.
Experiments:
[1] = system: Experimental allergic encephalomyelitis; experiment: Experimental allergic encephalomyelitis (EAE test), preventive treatment; format: in vivo, rat; conditions: for Animals with total paralysis) % / Animals with total paralysis) No./total: preventive treatment, 25 mg/kg/day p.o., rat; for Animals with total paralysis) No./total: number of animals with total paralysis per total number of rats treated
Description: 1. Experimental allergic encephalomyelitis (EAE test) in the rat; preventive treatment:
[Levine et al., Am. J. Path. 47 (1965) 61; McFarlin et al., J. Immunol. 113 (1974) 712; Borel, Transplant. & Clin. Immunol. 13 (1981) 3]:
Male Wistar rats are injected in the hind paws with 0.1 ml of a mixture of bovine spinal cord and complete Freund's adjuvant. The test compound is administered at dosages of from 5 to 50 mg/kg/day p.o. 5 days a week, commencing on the day of sensitization and continuing for 2 weeks. Onset of EAE in control groups receiving no medication generally commences between 9 to 16 days after sensitization and is marked by symptoms of paralysis in the hind limbs and tail. Test animals are examined daily for symptoms of the disease and disease occurrence is scored according to their severity. Total paralysis means complete involvement of both hind legs and tail. The test animals are kept under observation for a total period of 50 days.

[2] = system: Experimental allergic encephalomyelitis; experiment: Experimental allergic encephalomyelitis (EAE test), therapeutic treatment; format: in vivo, rat
Description: 2. Experimental allergic encephalomyelitis (EEA test) in the rat; therapeutic treatment:
Testing is carried out analogously to that described above with the exception that the administration of the test compound commences on day 7 after sensitization (i.e. immediately prior to appearance of disease symptoms) at dosages of from 5 to 50 mg/kg/day p.o. either daily or every second day and continuing for one week. During the testing period the animals are examined daily for symptoms of the disease and scored as in the previous test method.

[3] = system: Delayed-type hypersensitivity; experiment: Delayed-type hypersensitivity (DTH test) mediated by cloned helper T cells; format: in vivo, mouse; conditions: footpad swelling after 24 h
Description: 4. Delayed-type hypersensitivity (DTH test) in the mouse:
Suppression of DTH mediated by cloned helper T cells is tested with mice injected subcutaneously with cloned helper T cells together with the relevant antigen, namely sheep erythrocytes, in one hind footpad and with the same clone plus an unrelated antigen as control in the other footpad. The drugs are administered orally twice, first one day before and again at the time of the cell injection. After 24 h the increase in footpad thickness is measured. Footpad swelling is indicated as percentage compared with the control group (placebo).

Abelson 8.1 lymphoma = experiment: Tumor cell cytotoxicity test (TCC test); format: cell-based; conditions: 72 hours
Description: (§1) 1. Tumor cell cytotoxicity test (TCC test):
(§2) In flat bottom microtiter plates (Nunc Roskieide, Denmark) are placed Abelson 8.1 lymphoma, YAC-1, L1210 or P815 tumor cells in Dulbecco modified Eagle's medium (DMEM) + 10 % fetal calf serum and the tumor cell-containing plates are incubated with 1, 3 and 5 »g of the test compound for a period of 6 to 72 hours. The number of viable tumor cells present in the Abelson 8.1, YAC-1, L1210 and P815 assays is determined by measuring the alkaline phosphatase in the following manner: the tumor cell plates are centrifuged (500 x g) for ten minutes and the supernatant flicked off. Without further washing, 100 »l of buffer containing 20 »l of diethanolamine, 2 »M of MgCl₂·6H₂O, 2.5 »M of p-nitrophenylphosphate and 10 mg Triton X-100 are added. The samples are incubated for 60 minutes at room temperature and the enzymatic reaction is terminated by the addition of 100 »l of 0.5 N NaOH. The absorbance is then measured at […] using a Titertek Multiskan apparatus.
(§3) At an incubation period of 72 hours the following results were obtained: […]

L1210 = experiment: Tumor cell cytotoxicity test (TCC test); format: cell-based; conditions: 72 hours
Description: as §1, §2, §3

P815 = experiment: Tumor cell cytotoxicity test (TCC test); format: cell-based; conditions: 72 hours
Description: as §1, §2, §3

YAC-1 = experiment: Tumor cell cytotoxicity test (TCC test); format: cell-based; conditions: 72 hours
Description: as §1, §2, §3

Meth A fibrosarcoma = experiment: In vivo Meth A fibrosarcoma test; set-up: species or system mouse; conditions: for Tumor volume (% of control) day 7: day 7 after tumor implantation; for Survivors (tumor free): ten CBF₁ mice
Description: In vivo Meth A fibrosarcoma test in the mouse:
Ten CBF₁ mice of 10-12 week age are each implanted with 7.3 x 10⁶ Meth A sarcoma cells to serve as control. A second group of ten CBF₁ mice are each implanted with 7.3 x 10⁶ Meth A sarcoma cells and on day one after implant each mouse is treated p.o. with from 5 »g to 50 »g of the test compound per day for a total of twenty or twenty-seven days. Tumor growth and survivors are assayed on days 7, 14, 21 and 28 after tumor implantation.

[4] = system: Chronic relapsing experimental allergic encephalomyelitis; experiment: Chronic relapsing experimental allergic encephalomyelitis (CR-EAE test), therapeutic treatment; format: in vivo, rat; conditions: 5 to 50 mg/kg/day p.o. for 16 days starting on day 16; for inhibiting the appearance of mild to severe clinical symptoms: for the period of treatment; for protective efficacy: during treatment and following discontinuation of drug

Row | Structure (SMILES) | Animals with total paralysis) % [1] [%] | Animals with total paralysis) No./total [1] | Suppression of DTH (%) ([3]; 2 x 40 mg/kg orally) | Suppression of DTH (%) ([3]; 2 x 80 mg/kg orally) | Inhibition with tumor cells (%) Abelson 8.1 (Abelson 8.1 lymphoma; 1 »g/ml) [%] | Inhibition with tumor cells (%) Abelson 8.1 (Abelson 8.1 lymphoma; 3 »g/ml) [%] | Inhibition with tumor cells (%) Abelson 8.1 (Abelson 8.1 lymphoma; 5 »g/ml) [%] | Inhibition with tumor cells (%) L1210 (L1210; 1 »g/ml) [%] | Inhibition with tumor cells (%) L1210 (L1210; 3 »g/ml) [%] | Inhibition with tumor cells (%) L1210 (L1210; 5 »g/ml) [%] | Inhibition with tumor cells (%) P815 (P815; 1 »g/ml) [%] | Inhibition with tumor cells (%) P815 (P815; 3 »g/ml) [%] | Inhibition with tumor cells (%) P815 (P815; 5 »g/ml) [%] | Inhibition with tumor cells (%) YAC-1 (YAC-1; 1 »g/ml) [%] | Inhibition with tumor cells (%) YAC-1 (YAC-1; 3 »g/ml) [%] | Inhibition with tumor cells (%) YAC-1 (YAC-1; 5 »g/ml) [%] | Tumor volume (% of control) day 7 (Meth A fibrosarcoma; 5 »g per mouse per day p.o.) | Tumor volume (% of control) day 14 (Meth A fibrosarcoma; 5 »g per mouse per day p.o.) | Tumor volume (% of control) day 21 (Meth A fibrosarcoma; 5 »g per mouse per day p.o.) | Tumor volume (% of control) day 28 (Meth A fibrosarcoma; 5 »g per mouse per day p.o.) | also measured
1 | CCCCCCCCCCCCCCCCCCOCC1(COP(=O)([O-])OCC[N+](C)(C)C)CCCO1 (racemic) [Example 5 of USP 4'673'672, reference compound] | 43 | 3/7 | 31 | 88 | 68 | 97 | 98 | 0 | 80 | 91 | 40 | 87 | 95 | 19 | 74 | 91 | 82 % of control | 47 % of control | 20 % of control | 32 % of control | Animals with EAE) % ([2]; therapeutic treatment from day 7, 25 mg/kg/day p.o., rat): 29%; Animals with EAE) No./total ([2]; therapeutic treatment from day 7, 25 mg/kg/day p.o., rat, number of animals with symptoms of disease per total number of rats treated): 2/7; Survivors (tumor free) (Meth A fibrosarcoma; 5 »g per mouse per day p.o.): 3/10; Tumor volume (% of control) day 7 (Meth A fibrosarcoma; 50 »g per mouse per day p.o.): 76 % of control; Tumor volume (% of control) day 14 (Meth A fibrosarcoma; 50 »g per mouse per day p.o.): 38 % of control; Tumor volume (% of control) day 21 (Meth A fibrosarcoma; 50 »g per mouse per day p.o.): 14 % of control; Tumor volume (% of control) day 28 (Meth A fibrosarcoma; 50 »g per mouse per day p.o.): 21 % of control; Survivors (tumor free) (Meth A fibrosarcoma; 50 »g per mouse per day p.o.): 6/10
2 | CCCCCCCCCCCCCCCCCCOCC1(COP(=O)([O-])OCC[N+](C)(C)C)CCCO1 (racemic) [compound of Example 5 of USP 4'673'672] | – | – | – | – | – | – | – | – | – | – | – | – | – | – | – | – | – | – | – | – | inhibiting the appearance of mild to severe clinical symptoms [4]: effective
3 | CCCCCCCCCCCCCCCCCCOC[C@@]1(COP(=O)([O-])OCC[N+](C)(C)C)CCCO1 [Compound of formula I, (R)-2-[(2-Octadecyloxymethyltetrahydrofuran-2-ylmethoxy)-hydroxyphosphinyloxy]-N,N,N-trimethylethanaminium hydroxide inner salt-4-oxide] | 36 | 5/14 | 73 | 88 | 29 | 93 | 95 | 16 | 76 | 87 | 32 | 80 | 97 | 8 | 86 | 96 | 90 % of control | 52 % of control | 21 % of control | 37 % of control | occurrence of clinical symptoms ([1]; 5 to 50 mg/kg/day p.o. 5 days a week for 2 weeks, versus placebo control groups): substantial reduction of occurrence of clinical symptoms; appearance of EAE disease symptoms ([2]; 5 to 50 mg/kg/day p.o. from day 7 for one week, versus placebo control groups): substantial reduction of appearance of EAE disease symptoms; protective efficacy [4]: effective to fully protect all animals both during treatment and following discontinuation of drug; inhibiting the appearance of mild to severe clinical symptoms [4]: effective; Survivors (tumor free) (Meth A fibrosarcoma; 5 »g per mouse per day p.o.): 2/10; Tumor volume (% of control) day 7 (Meth A fibrosarcoma; 50 »g per mouse per day p.o.): 85 % of control; Tumor volume (% of control) day 14 (Meth A fibrosarcoma; 50 »g per mouse per day p.o.): 53 % of control; Tumor volume (% of control) day 21 (Meth A fibrosarcoma; 50 »g per mouse per day p.o.): 21 % of control; Tumor volume (% of control) day 28 (Meth A fibrosarcoma; 50 »g per mouse per day p.o.): 32 % of control; Survivors (tumor free) (Meth A fibrosarcoma; 50 »g per mouse per day p.o.): 3/10
4 | CCCCCCCCCCCCCCCCCCOC[C@]1(COP(=O)([O-])OCC[N+](C)(C)C)CCCO1 [Enantiomer of the compound of formula I, (S)-2-[(2-Octadecyloxymethyltetrahydrofuran-2-ylmethoxy)-hydroxyphosphinyloxy)-N,N,N-trimethylethanaminium hydroxide inner salt-4-oxide] | 86 | 12/14 | 16 | 40 | 91 | 98 | 98 | 45 | 92 | 97 | 84 | 93 | 97 | 40 | 78 | 91 | 66 % of control | 19 % of control | 6 % of control | 11 % of control | protective efficacy [4]: much less effective protective efficacy during treatment; Survivors (tumor free) (Meth A fibrosarcoma; 5 »g per mouse per day p.o.): 8/10; Survivors (tumor free) (Meth A fibrosarcoma; 5 »g per mouse per day p.o., listed as (S)-isomer): 8 out of 10; Tumor volume (% of control) day 7 (Meth A fibrosarcoma; 50 »g per mouse per day p.o.): 70 % of control; Tumor volume (% of control) day 14 (Meth A fibrosarcoma; 50 »g per mouse per day p.o.): 28 % of control; Tumor volume (% of control) day 21 (Meth A fibrosarcoma; 50 »g per mouse per day p.o.): 8 % of control; Tumor volume (% of control) day 28 (Meth A fibrosarcoma; 50 »g per mouse per day p.o.): 13 % of control; Survivors (tumor free) (Meth A fibrosarcoma; 50 »g per mouse per day p.o.): 8/10

From patent EP0462935B1, “Enantiomers of 2-tetrahydrofuran derivatives, intermediates therefor and their preparation” (SANDOZ AG, priority 1990, dated 1991)
